Test results from patent US20250108048A1, “STING AGONIST COMPOUNDS AND CONJUGATES” (SUTRO BIOPHARMA, INC., priority 2023, published 2025).
Where two headings read alike, the source gives them in different places.

Legend:
hSTING-R232 = biological target: T1, hSTING-R232 (Homo sapiens, UniProt Q86WV6, H232R); experiment: THP1-Dual KI-hSTING-R232 reporter assay (IRF pathway, secreted Lucia luciferase); format: cell-based; conditions: THP1-Dual KI-hSTING-R232 cells, 24 hours; read-out: Reporter assay EC50 (nM) THP-1-R232
T1 construct: host or cells: THP1-Dual KI-hSTING-R232 (from THP1-Dual KO-STING)
Protocol: (§1) The activities of the STING agonists to activate human or mouse STING pathways were evaluated in THP-1-Dual™, THP1-Dual™ KI-hSTING-R232, THP1-Dual™ KI-hSTING-H232 Cells and THP1-Dual™ KI-mSTING Cells. THP-1-Dual™ cells contains hSTING-HAQ haplotype and can be used to evaluate the activity of STING agonists by monitoring the activation of NF-κB pathway and the […] (IFN regulatory factor) pathways. THP1-Dual™ KO-STING cells were generated from THP1-Dual™ cells by stable knockout of the endogenous HAQ STING gene. THP1-Dual™ KI-hSTING-R232 cells, THP1-Dual™ KI-hSTING-H232 cells and THP1-Dual™ KI-mSTING cells were generated by transfecting THP1-Dual™ KO-STING cells with hSTING-R232 or hSTING-H232 or mSTING. Stimulating these reporter cells with a STING agonist activates TRF pathway and induces the production of a secreted Lucia luciferase in the cell culture medium, which can be determined using QUANTI-Luc™ reagent.
(§2) THP-1-Dual™, THP1-Dual™ KI-hSTING-R232, THP1-Dual™ KI-hSTING-H232 and THP1-Dual™ KI-mSTING reporter cells were purchased from Invivogen and maintained in manufacture recommended culture medium with required supplemental antibiotics. On the day of assay, the cells were harvested with Accutase and counted by the Vi-CELL Cell Viability Analyzers. Cells were resuspended in HEK blue detection medium and a total of 10000 cells were seeded in each well of a 384-well flat bottom plate. […] After incubation at 37° C. in a CO2 incubator for 24 hours, 20 μl of cell culture medium per well was transferred into a 384-well white (opaque) plate. 50 μl of QUANTI-Luc™ assay solution was then added to each well and the plate was immediately transferred to an ENVISION® plate reader to measure luminescence (Perkin-Elmer). Relative luminescence readings were converted to fold change of signal using untreated cells as controls. Data was fitted with non-linear regression analysis, using log (agonist) vs. response, variable slope, 4-parameter fit equation using GraphPad Prism. Data was expressed as fold change in signal vs. dose of STING agonist in nM with error bars indicating the Standard Deviation (SD) of the quadruplicates. There result was reported in Table 2 as EC50 (the midpoint of the curve, or concentration at which […] of the maximum effect was observed).

hSTING-HAQ haplotype = biological target: T2, hSTING-HAQ haplotype (Homo sapiens, UniProt Q86WV6, G230A/H232R/R293Q/R71H); experiment: THP-1-Dual reporter assay (endogenous hSTING-HAQ); format: cell-based; conditions: THP-1-Dual cells (hSTING-HAQ), 24 hours
T2 construct: host or cells: THP-1-Dual
Protocol: as §1, §2

mSTING = biological target: T3, mSTING (Mus musculus, UniProt Q3TBT3); experiment: 293-mSTING reporter assay; format: cell-based
T3 sequence (Q3TBT3 1-378): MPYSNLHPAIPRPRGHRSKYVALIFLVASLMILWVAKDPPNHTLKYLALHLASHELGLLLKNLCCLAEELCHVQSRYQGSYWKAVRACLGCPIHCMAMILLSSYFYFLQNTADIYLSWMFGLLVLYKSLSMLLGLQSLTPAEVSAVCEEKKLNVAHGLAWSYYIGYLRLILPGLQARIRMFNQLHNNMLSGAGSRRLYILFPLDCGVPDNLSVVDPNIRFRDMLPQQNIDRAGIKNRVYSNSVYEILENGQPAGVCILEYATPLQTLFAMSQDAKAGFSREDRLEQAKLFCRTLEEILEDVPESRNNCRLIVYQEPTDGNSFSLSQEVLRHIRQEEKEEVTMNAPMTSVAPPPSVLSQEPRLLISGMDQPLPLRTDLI

hSTING WT = hSTING WT (Homo sapiens, UniProt Q86WV6); experiment: Surface plasmon resonance, hSTING WT; format: binding; conditions: read-out: hSTING WT SPR (Kd)
hSTING H232 [1] = biological target: T4, hSTING H232 (Homo sapiens, UniProt Q86WV6); experiment: Surface plasmon resonance, hSTING H232; format: binding; conditions: read-out: hSTING H232 SPR (Kd)
hSTING AQ = hSTING AQ (Homo sapiens, UniProt Q86WV6, G230A/H232R/R293Q); experiment: Surface plasmon resonance, hSTING AQ; format: binding; conditions: read-out: hSTING AQ SPR (Kd)
hSTING H232 [2] = biological target: T4, hSTING H232; experiment: THP1-Dual KI-hSTING-H232 reporter assay (IRF pathway, secreted Lucia luciferase); format: cell-based; set-up: host or cells: THP1-Dual KI-hSTING-H232 (from THP1-Dual KO-STING); conditions: THP1-Dual KI-hSTING-H232 cells, 24 hours; read-out: Reporter assay EC50 (nM) THP-1-H232
Protocol: as §1, §2

[3] = test system: TROP2 positive NCI-H292 Cells; experiment: Cytokine release from cancer cells (MSD); format: cell-based, human; conditions: 120 hours; for EC50: Homo sapiens
Protocol: The cell supernatant was collected and IP-10 and IL-6 released in the cell culture medium was measured using Streptavidin single spot 96 well plates, compatible human antibody pairs, and calibrating solutions commercially available from MesoScale Discovery. Raw data generated by the Meso Scale Discovery (MSD®) SQ120 plate reader was imported into MSD Discovery Workbench software. Unknown sample values were interpolated from standard curves by the software and imported into Graphpad Prism. Each cytokine level was fitted with non-linear regression analysis, using log (agonist) vs. response, variable slope, 4-parameter fit equation in GraphPad Prism.

NCI-H292 cells = experiment: Immunogenic cell death markers (HMGB1 release, surface calreticulin); format: cell-based, human; conditions: 48 hours
Protocol: Immunogenic cell death elicited by the TROP2 ADC, iSAC, and exatecan were measured by cell surface translocate of calreticulin and release of HMGB1 in the cell culture supernatant. Briefly, TROP2 positive cell line NCI-H292 were seeded into a 96-well flat bottom plate 4 hours prior to the initialization of the assay. Test articles were formulated at a 2× starting concentration in cell culture medium, and samples were serial diluted (1:3) under sterile conditions and added onto the cells in duplicates. After incubation at 37° C. in a CO2 incubator for 48 hours, the cell supernatant was collected for measuring HMGB1 and the adherent cells were collected for calreticulin expression on the cell surface.
HMGB1 released in the supernatant was assessed via sandwich ELISA using mouse anti-human HMGB1 clone 2F6 (Sigma-Aldrich) as the capture, polyclonal rabbit anti-human HMGB1 (Abcam) as secondary, and polyclonal goat anti-rabbit IgG HRP as the detection antibody. The HMGB1 concentrations in the cell culture medium were calculated based a standard curve built on commercially available recombinant human HMGB1 (R&D Systems).
NCI-H292 cells were detached using Accutase (Innovative Cell Technologies) and viability was accessed using a 1:500 dilution of Zombie NIR viability dye. […] Surface calreticulin measures on the live cells were gathered using an Attune NXT Flow Cytometer (ThermoFisher Scientific) to obtain median fluorescence intensity values. All data were fitted with non-linear regression analysis, using log(agonist) vs. response, variable slope, 4 parameter fit equation using GraphPad Prism.

T2 sequence (Q86WV6 whole entry R71H/G230A/H232R/R293Q): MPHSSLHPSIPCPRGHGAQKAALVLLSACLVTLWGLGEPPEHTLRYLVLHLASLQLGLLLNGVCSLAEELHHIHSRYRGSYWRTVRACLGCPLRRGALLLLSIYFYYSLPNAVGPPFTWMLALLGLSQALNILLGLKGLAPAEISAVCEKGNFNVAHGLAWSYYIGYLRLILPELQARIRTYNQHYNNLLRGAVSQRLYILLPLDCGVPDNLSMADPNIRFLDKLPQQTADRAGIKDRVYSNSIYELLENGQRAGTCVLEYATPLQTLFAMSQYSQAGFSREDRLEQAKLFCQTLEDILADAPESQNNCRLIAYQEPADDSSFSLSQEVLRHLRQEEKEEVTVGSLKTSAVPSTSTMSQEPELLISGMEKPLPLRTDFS
T4 sequence (Q86WV6 whole entry): as the sequence (Q86WV6 whole entry R71H/G230A/H232R/R293Q) above, with H71R, A230G, R232H, Q293R counted along it
hSTING AQ, sequence (Q86WV6 whole entry G230A/H232R/R293Q): as the sequence (Q86WV6 whole entry R71H/G230A/H232R/R293Q) above, with H71R counted along it
T1 sequence (Q86WV6 whole entry H232R): as the sequence (Q86WV6 whole entry R71H/G230A/H232R/R293Q) above, with H71R, A230G, Q293R counted along it
hSTING WT, sequence (Q86WV6 whole entry H232R): as the sequence (Q86WV6 whole entry R71H/G230A/H232R/R293Q) above, with H71R, A230G, Q293R counted along it

| SMILES | EC50 (hSTING-R232) | EC50 (hSTING-HAQ haplotype) | EC50 (mSTING) | Kd (hSTING WT) | Kd (hSTING H232 [1]) | Kd (hSTING AQ) | EC50 (hSTING H232 [2]) | EC50 ([3]; read-out: IL-6 Release EC50) | EC50 ([3]; read-out: IP-10 Release EC50) | IL-6 Release Span [3] | IP-10 Release Span [3] | HMGB-1 Release Span (NCI-H292 cells) | EC50 (NCI-H292 cells; Homo sapiens, sandwich ELISA, read-out: HMGB-1 Release EC50) |
| --- | --- | --- | --- | --- | --- | --- | --- | --- | --- | --- | --- | --- | --- |
| CCn1nc(C)cc1C(=O)Nc1nc2cc(C(N)=O)ccc2n1C/C=C/Cn1c(NC(=O)c2cc(C)nn2CC)nc2cc(C(N)=O)cc(OCCCN3CC4(C3)CN(C(=O)CON)CCO4)c21 [LP-1-1, 7-[3-[8-(2-aminooxyacetyl)-5-oxa-2,8-diazaspiro[3.5]nonan-2-yl]propoxy]-1-[(E)-4-[5-carbamoyl-2-[(2-ethyl-5-methyl-pyrazole-3-carbonyl)amino]benzimidazol-1-yl]but-2-enyl]-2-[(2-ethyl-5-methyl-pyrazole-3-carbonyl)amino]benzimidazole-5-carboxamide] | > 150 nM | 50 to 150 nM | > 150 nM | ≤ 20 nM | ≤ 20 nM | ≤ 20 nM | > 150 nM |  |  |  |  |  |  |
| CCn1nc(C)cc1C(=O)Nc1nc2cc(C(N)=O)ccc2n1C/C=C/Cn1c(NC(=O)c2cc(C)nn2CC)nc2cc(C(N)=O)cc(OCCCN3CC4(C3)CN(C(=O)CON=C(C)c3ccc(C[C@H](N)C(=O)O)cc3)CCO4)c21 (racemic) [LP-1-4, rac-(2S)-2-amino-3-[4-[N-[2-[2-[3-[6-carbamoyl-2-[(2-ethyl-5-methyl-pyrazole-3-carbonyl)amino]-3-[rac-(E)-4-[5-carbamoyl-2-[(2-ethyl-5-methyl-pyrazole-3-carbonyl)amino]benzimidazol-1-yl]but-2-enyl]benzimidazol-4-yl]oxypropyl]-5-oxa-2,8-diazaspiro[3.5]nonan-8-yl]-2-oxo-ethoxy]-C-methyl-carbonimidoyl]phenyl]propanoic acid] | > 150 nM | > 150 nM | > 150 nM | ≤ 20 nM | ≤ 20 nM | ≤ 20 nM | > 150 nM |  |  |  |  |  |  |
| CCn1nc(C)cc1C(=O)Nc1nc2cc(C(N)=O)ccc2n1C/C=C/Cn1c(NC(=O)c2cc(C)nn2CC)nc2cc(C(N)=O)cc(OCCCN3CC4(C3)CN(C(=O)[C@@H](N)CC(C)C)CCO4)c21 [Compound 2, (E)-7-(3-(8-(L-leucyl)-5-oxa-2,8-diazaspiro[3.5]nonan-2-yl)propoxy)-1-(4-(5-carbamoyl-2-(1-ethyl-3-methyl-1H-pyrazole-5-carboxamido)-1H-benzo[d]imidazol-1-yl)but-2-en-1-yl)-2-(1-ethyl-3-methyl-1H-pyrazole-5-carboxamido)-1H-benzo[d]imidazole-5-carboxamide] | ≤ 50 nM | 50 to 150 nM | > 150 nM | ≤ 20 nM | ≤ 20 nM | ≤ 20 nM | ≤ 50 nM |  |  |  |  |  |  |

Now from value to molecule, other results behind:

| EC50 (hSTING-R232) | EC50 (hSTING-HAQ haplotype) | EC50 (mSTING) | Kd (hSTING WT) | Kd (hSTING H232 [1]) | Kd (hSTING AQ) | EC50 (hSTING H232 [2]) | EC50 ([3]; read-out: IL-6 Release EC50) | EC50 ([3]; read-out: IP-10 Release EC50) | SMILES | IL-6 Release Span [3] | IP-10 Release Span [3] | HMGB-1 Release Span (NCI-H292 cells) | EC50 (NCI-H292 cells; Homo sapiens, sandwich ELISA, read-out: HMGB-1 Release EC50) |
| --- | --- | --- | --- | --- | --- | --- | --- | --- | --- | --- | --- | --- | --- |
| 50 to 150 nM | 50 to 150 nM | > 150 nM | ≤ 20 nM | ≤ 20 nM | ≤ 20 nM | 50 to 150 nM |  |  | CCn1nc(C)cc1C(=O)Nc1nc2cc(C(N)=O)ccc2n1C/C=C/Cn1c(NC(=O)c2cc(C)nn2CC)nc2cc(C(N)=O)cc(OCCCN3CC4(C3)CN(C(=O)CN)CCO4)c21 [Compound 3] |  |  |  |  |
| ≤ 50 nM | ≤ 50 nM | > 150 nM | ≤ 20 nM | ≤ 20 nM | ≤ 20 nM | ≤ 50 nM | > 100 nM | > 100 nM | CCn1nc(C)cc1C(=O)Nc1nc2cc(C(N)=O)ccc2n1C/C=C/Cn1c(NC(=O)c2cc(C)nn2CC)nc2cc(C(N)=O)cc(OCCCN3CC4(CNCCO4)C3)c21 [Compound 1] | >10000 pg/mL | >4000 pg/mL | 17 ng/mL | 6.06 nM |
| ≤ 50 nM | ≤ 50 nM | 50 to 150 nM | ≤ 20 nM | ≤ 20 nM | ≤ 20 nM | ≤ 50 nM |  |  | CCn1nc(C)cc1C(=O)Nc1nc2cc(C(N)=O)cc(OC)c2n1C/C=C/Cn1c(NC(=O)c2cc(C)nn2CC)nc2cc(C(N)=O)cc(OCCCN3CC4(CNCCO4)C3)c21 [Compound 6] |  |  |  |  |
